Assay results: US20150328232A1, “PROSTACYLIN COMPOSITIONS AND METHODS FOR USING THE SAME” (INSMED INCORPRATION, priority 2012, published 2015)

Experiments:
[1] = cited from earlier work
[2] = Dialysis assay against PBS (treprostinil release); type: physicochemical; conditions: 5 mL dialyzed against 1 L 1×PBS, 50 kDa MW cutoff membrane
Experimental: The results of this study can be used as an indication of which compositions might provide a sustained release profile in vivo.
5 mL of each sample was dialyzed against 1 L of 1×PBS. […] sample was collected and tested by HPLC at different time points (FIG. 7). 250 μL sample was collected at 24 h. Each time a sample was collected, an equal volume of 1×PBS was added to the dialysis bag. Absorbance data was normalized to the calculated dilution factor.

[3] = molecular target: T1, EP2 prostanoid receptor (Homo sapiens, UniProt P43116); assay: GloSensor cAMP assay in CHO-K1 cells co-transfected with EP2 receptor; type: cell-based
T1 construct: host or cells: CHO-K1
Text: A cell based Chinese hamster ovary-K1 (CHO-K1) assay based on the GloSensor™ cAMP assay (Promega) was used to characterize the effect of treprostinil alkyl ester compounds on cAMP levels.
cAMP is a second messenger involved in signal transduction of G-protein coupled receptors (GPCRs) acting through Gα-s and Gα-i proteins. Because the treprostinil receptor is a GPCR, the assay provides an indication of whether the respective prostacyclin composition binds its receptor and activates the GPCR cell signaling cascade.
The GloSensor™ assay harnesses a genetically modified form of firefly luciferase into which a cAMP-binding protein moiety has been inserted. Upon binding of cAMP, a conformational change is induced leading to increased light output.
The EP2 prostanoid receptor was co-transfected with the GloSensor™ plasmid (Promega) into CHO-K1 cells as follows. CHO-K1 cells were harvested when the monoloayer was at 50-90% confluence. First, cells were washed with 5 mL PBS. […] Cell number was determined using a hemacytometer. […]
Following incubation, cells were treated and analyzed. […] Cell number was determined using a hemacytometer. […] Following an overnight incubation at 37° C. and 5% CO2 in a water-jacketed incubator, the cells were ready for use in cAMP response assays. […]

T1 sequence (P43116 whole entry): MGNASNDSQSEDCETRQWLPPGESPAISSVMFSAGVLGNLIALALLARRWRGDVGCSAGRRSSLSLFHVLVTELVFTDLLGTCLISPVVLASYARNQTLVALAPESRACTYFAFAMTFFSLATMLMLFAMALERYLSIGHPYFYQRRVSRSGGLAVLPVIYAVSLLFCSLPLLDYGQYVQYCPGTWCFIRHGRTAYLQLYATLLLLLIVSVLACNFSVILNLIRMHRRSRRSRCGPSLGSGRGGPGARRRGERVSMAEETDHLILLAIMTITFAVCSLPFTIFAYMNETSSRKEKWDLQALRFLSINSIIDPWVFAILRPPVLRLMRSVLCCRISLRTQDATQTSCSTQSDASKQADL

Row | rate of treprostinil release during dialysis [2] | sustained cAMP level [3] | SMILES | half-life ([1]; in vivo) | time to steady state plasma concentrations ([1]; continuous subcutaneous infusion, 1.25 to 22 ng/kg/min) | excreted in urine as identifiable metabolite ([1]; in vivo) | excreted in urine as unchanged drug ([1]; in vivo) | decrease of clearance ([1]; patients with hepatic insufficiency) | absolute bioavailability ([1]; subcutaneous administration) | elimination half-life ([1]; subcutaneous administration) | administered drug excreted in urine ([1]; unchanged drug or identifiable metabolite)
1 |  |  | CCCCC[C@H](O)/C=C/[C@@H]1[C@H]2C/C(=C/CCCC(=O)O)O[C@H]2C[C@H]1O [epoprostenol] | 2 to 7 min |  |  |  |  |  |  | 
2 | dialyzed out the fastest | not exhibited | CCCCC[C@H](O)CC[C@@H]1[C@H]2Cc3cccc(OCC(=O)O)c3C[C@H]2C[C@H]1O [treprostinil] |  | about 10 hours | 64% | 4% | up to 80% | 100% | 4.6 h | Approximately 79%
